Tests used:
Assay in all cases: relative viability (nuclei count vs DMSO), 5 days (fraction); higher = more cells survive
[1] = compound: COC1=C(C=C(C=C1)C2=CC3=NC=CN3C(=N2)NC4=C(C=CC=N4)C(=O)N)OC [BAY61-3606] + CS(=O)(=O)CCNCc1ccc(-c2ccc3ncnc(Nc4ccc(OCc5cccc(F)c5)c(Cl)c4)c3c2)o1 [Lapatinib] (partner 2 µM)
Summary of the method: (§1)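 Relative viability was taken as the ratio of nuclei in treated wells to nuclei in vehicle wells. Lung cancer cell lines in 1536-well plates received compounds by pin tool one day after seeding, either one drug alone or a fixed anchor-drug dose plus five library-drug doses (not always all listed) in √10 steps. Nuclei were counted on 4× images after 5 days of treatment, and values are medians of duplicate plates.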

[2] = compound: COC1=C(C=C(C=C1)C2=CC3=NC=CN3C(=N2)NC4=C(C=CC=N4)C(=O)N)OC [BAY61-3606] + COc1cc2c(Oc3ccc(NC(=O)C4(C(=O)Nc5ccc(F)cc5)CC4)cc3F)ccnc2cc1OCCCN1CCOCC1 [Foretinib] (partner 0.25 µM)
Summary of the method: as §1

[3] = compound: COC1=C(C=C(C=C1)C2=CC3=NC=CN3C(=N2)NC4=C(C=CC=N4)C(=O)N)OC [BAY61-3606]
Summary of the method: (§2)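 Viability was read as treated-well nuclei divided by vehicle-well nuclei, using the median across plates. Lung cancer cell lines in 1536-well plates were kept overnight at 37 °C, pinned with five √10-spaced library-drug doses, and after 5 days were Hoechst-stained, imaged at 4× and counted in MetaXpress. Plates passed only with control CV below 25% and at least one doubling.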

[4] = compound: COc1cccc2c1C(=O)c1c(O)c3c(c(O)c1C2=O)C[C@@](O)(C(=O)CO)C[C@@H]3O[C@H]1C[C@H](N)[C@H](O)[C@H](C)O1 [Doxorubicin]
Summary of the method: as §2

Cell Line: UMC-11
- relative viability ([1]; first compound 0.02 µM): 1.16
- relative viability ([1]; first compound 0.06325 µM): 0.944
- relative viability ([1]; first compound 0.2 µM): 0.832
- relative viability ([1]; first compound 0.6325 µM): 1.1
- relative viability ([1]; first compound 2 µM): 0.958
- relative viability ([2]; first compound 0.02 µM): 1.23
- relative viability ([2]; first compound 0.06325 µM): 1.12
- relative viability ([2]; first compound 0.2 µM): 1.05
- relative viability ([2]; first compound 0.6325 µM): 1.15
- relative viability ([2]; first compound 2 µM): 1.02
- relative viability ([3]; 0.02 µM): 1.1
- relative viability ([3]; 0.06325 µM): 1.05
- relative viability ([3]; 0.2 µM): 0.955
- relative viability ([3]; 0.6325 µM): 1.06
- relative viability ([3]; 2 µM): 0.991
- relative viability ([4]; 0.001 µM): 0.974
- relative viability ([4]; 0.003162 µM): 1.06
- relative viability ([4]; 0.01 µM): 0.913
- relative viability ([4]; 0.03162 µM): 0.692
- relative viability ([4]; 0.1 µM): 0.715

From the supplement of paper PMC10307832
